Test results published in patent publication US11028061B2, “Modulators of myocyte lipid accumulation and insulin resistance and methods of use thereof” (Sanford Burnham Prebys Medical Discovery Institute, priority 2015, dated 2021).

Legend:
Assay type in all cases: cell-based
human skeletal myotubes [1] = assay: Glycogen synthesis assay in human skeletal myotubes; details: 24 hours
Procedure: Human skeletal myotubes were incubated with or without SBI-477 and then treated with or without insulin (100 nM) for 30 minutes. Glycogen synthesis rates were then measured as described (Halse, et al., J Biol Chem. 1999; 274(2):776-780). Briefly, differentiated primary human skeletal myotubes were treated with SBI-477 as described in the glucose uptake assay. Following incubation with SBI-477, cells were serum starved in α-MEM for 1 hour. The medium was replaced with α-MEM supplemented with [14C]-D-glucose (1 μCi/mL) for three hours and then treated in the absence or presence of insulin (100 nM) for 30 minutes. After incubation, the cells were washed three times with ice-cold PBS and then lysed in 30% potassium hydroxide (KOH) containing 6 mg/mL glycogen. For glycogen precipitation, the samples were added to ice-cold 100% ethanol for 18 hours at 4° C. The samples were centrifuged at 8,500×g for 10 minutes at 4° C. and the supernatant was discarded. After one wash with 75% ethanol, the glycogen precipitate was dissolved in distilled water. [14C]-D-glucose incorporated to glycogen was counted by liquid scintillation analyzer (PerkinElmer) and normalized to total protein.

TXNIP = TXNIP expression by quantitative RT-PCR in human myotubes; details: 24 hours
Procedure: FIGS. 4A-C show downregulation of TXNIP and ARRDC4 expression by SBI-477. (FIG. 4A) TXNIP and ARRDC4 mRNA levels as determined by quantitative RT-PCR in human myotubes treated with SBI-477 (10 μM) or DGAT1 inhibitor (DGATi, […]) for 24 hours in the absence or presence of 100 μM oleate (n=4). Expression is shown relative to vehicle/BSA treatment. (FIG. 4B) TXNIP gene expression following exposure to a dose range of SBI-477 for 24 hours (n=4). (FIG. 4C) Left, Effect of SBI-477 on TXNIP protein levels as determined by western blot analysis by SBI-477. Right, Quantitation of the TXNIP western blot data is shown (n=5). *p<0.05 vs. Vehicle/BSA control, †p<0.05 vs. Vehicle/oleate by one-way ANOVA with Bonferroni post hoc test. The data are shown as mean±SD.
Total RNA was isolated using RNeasy Mini Kit (Qiagen) according to the manufacturer's instructions. cDNA was synthesized using the Affinity Script cDNA Synthesis Kit (Stratagene) with 0.5 μg of total RNA. PCR reactions were performed in triplicate […] Roche LightCycler® 480 Instrument II) with specific primers for each gene.

human skeletal myotubes [2] = assay: Cellular glucose uptake assay ([3H]-2-deoxyglucose); details: 10 μM SBI-477, 24 hours
Procedure: After differentiation, primary human skeletal myotubes were incubated with the indicated concentration of SBI-477 for 24 hours and then treated with insulin (100 nM) for 30 minutes. Cells were washed in phosphate-buffered saline (PBS) three times at room temperature and then incubated with Krebs-Ringer HEPES buffer (140 mM NaCl, 5 mM KCl, 1 mM CaCl2, 2.5 mM MgSO4, 2.5 mM, NaH2PO4, 20 mM HEPES and 0.1% bovine serum albumin) containing [3H]-2-deoxyglucose (1.0 μCi/mL) for 15 min. Glucose uptake was terminated by washing five times with ice-cold PBS. The cells were then solubilized with 0.5N sodium hydroxide (NaOH). The amount of [3H]-2-deoxyglucose taken up was measured by liquid scintillation analyzer (PerkinElmer) and normalized to total protein.

MondoA = molecular target: T1, MondoA (Homo sapiens, UniProt Q9HAP2); assay: ChIP of MondoA occupation on TXNIP and ARRDC4 promoter ChoREs; details: human skeletal myotubes
T1 construct: Proteins were immunoprecipitated by using anti-MondoA (Bethyl Laboratories; catalog number A303-195A); endogenous in cells; host or cells: differentiated primary human skeletal myotubes
Procedure: ChIP assays were performed as previously described (Gan, et al., Genes Dev., 2011, 25(24):2619-2630). Briefly, differentiated human skeletal myotubes were cross-linked with 1% formaldehyde for 10 minutes at room temperature, and glycine was added to stop the cross-linking reaction. Cells were harvested and lysed. For chromatin fragmentation, sonication was performed using a Bioruptor (Diagenode). Proteins were immunoprecipitated by using anti-MondoA (Bethyl Laboratories; catalog number A303-195A) or IgG control (Sigma; catalog number 15006) overnight at 4° C. DNA fragments were purified using a QIAquick PCR purification kit (Qiagen) and quantified by a LightCycler® 480 Instrument II (Roche) with the specific primers listed in Table 1.

human skeletal myotubes [3] = assay: Triglyceride accumulation in oleate-loaded human skeletal myotubes; details: Myotube, 100 μM oleate 24 hours, read-out: EC50, inhibition of TAG accumulation
Procedure: Human skeletal myotubes were differentiated for 8 days. On day 7, 100 μM of oleic acid complexed to fatty acid-free BSA was added to the cells with the indicated concentration of test compound for 24 hours. Following incubation with oleate and compound, cells were formaldehyde fixed and stained with AdipoRed™ (Lonza). Triglyceride accumulation was measured using signal intensity at excitation 540/emission 590 nm (Bio-Tek Instruments, Inc.). Dose response curves were generated in Prism 6 (GraphPad Software). EC50 values were calculated using non-linear regression analysis. For biochemical measurement of triglyceride, human skeletal myotubes were incubated with oleate-BSA and test compound as described above. After 24 hour incubation, cells were collected with a lysis buffer containing 0.1% IGEPAL CA-630 (Sigma-Aldrich) in PBS. The harvested cells were sonicated for 5 seconds and then centrifuged at 10,000×g for 10 minutes at 4° C. The supernatant was removed and stored on ice. TAG levels were quantified using Infinity™ Triglycerides Liquid Stable Reagent (Thermo Scientific), following the manufacturer's instructions for colorimetric assay.
Student's t-test, Mann Whitney test, one-way ANOVA with Bonferroni post hoc test, or two-way ANOVA with Tukey post hoc test was performed to determine statistical significance as indicated. […]

T1 sequence (Q9HAP2 2-919 limits assumed): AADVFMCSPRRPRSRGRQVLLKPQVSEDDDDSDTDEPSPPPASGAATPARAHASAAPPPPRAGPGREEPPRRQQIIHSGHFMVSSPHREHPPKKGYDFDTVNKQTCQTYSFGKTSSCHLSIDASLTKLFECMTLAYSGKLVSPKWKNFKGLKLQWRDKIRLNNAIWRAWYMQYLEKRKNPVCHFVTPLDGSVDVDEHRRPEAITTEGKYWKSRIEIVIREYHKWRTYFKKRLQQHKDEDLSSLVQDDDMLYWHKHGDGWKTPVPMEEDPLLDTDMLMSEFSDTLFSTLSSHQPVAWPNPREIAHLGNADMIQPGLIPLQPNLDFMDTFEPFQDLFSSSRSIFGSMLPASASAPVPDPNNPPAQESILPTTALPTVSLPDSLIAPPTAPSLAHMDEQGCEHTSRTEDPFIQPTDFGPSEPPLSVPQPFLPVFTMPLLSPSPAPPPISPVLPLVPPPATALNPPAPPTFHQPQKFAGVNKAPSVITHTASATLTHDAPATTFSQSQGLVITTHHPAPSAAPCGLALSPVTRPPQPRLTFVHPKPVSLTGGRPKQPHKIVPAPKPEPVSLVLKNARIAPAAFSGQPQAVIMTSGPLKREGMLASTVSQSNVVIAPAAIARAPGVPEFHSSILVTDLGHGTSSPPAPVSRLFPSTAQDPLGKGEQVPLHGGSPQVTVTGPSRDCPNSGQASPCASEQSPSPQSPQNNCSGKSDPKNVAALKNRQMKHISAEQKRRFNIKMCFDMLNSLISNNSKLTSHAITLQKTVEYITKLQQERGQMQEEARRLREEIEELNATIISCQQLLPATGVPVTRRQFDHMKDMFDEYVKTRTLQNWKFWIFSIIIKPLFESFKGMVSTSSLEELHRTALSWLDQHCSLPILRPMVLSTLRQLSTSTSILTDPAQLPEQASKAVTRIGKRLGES

Occupation by MondoA of ChoREs in TXNIP and ARRDC4 promoter regions (MondoA): inhibited
EC50 (human skeletal myotubes [3]): ~1000 nM
SMILES: COc1ccc(-c2csc(NC(=O)c3ccc(OCC(=O)N4CCOCC4)c(OC)c3)n2)cc1 [Cpd. 7, 3-methoxy-N-(4-(4-methoxyphenyl)thiazol-2-yl)-4-(2-morpholino-2-oxoethoxy)benzamide]
Glycogen synthesis rates (human skeletal myotubes [1]): enhanced by SBI-477 treatment in a dose dependent manner
TXNIP expression (TXNIP): robust, dose-dependent downregulation
Increase of basal and insulin stimulated glucose uptake (human skeletal myotubes [2]): approximately 84%
